This note sets out measurements from patent publication US20250381165A1, “Method of Use for Benzofuran Compounds” (Tampa Bay Research Institute, Inc., priority 2024, published 2025).

SMILES strings stand for the structures.

Series [1] concerns murine splenocytes (B3Z activation). Kind of series: B3Z activation by murine splenocytes (OVA or SIINFEKL). Format: cell-based. On the procedure: Murine splenocytes were plated at a density of 2.5 or 5×10^4 cells/well (100 μL/well in 96 well plates) and cultured overnight in cRPMI. The cells were washed with DPBS and then treated for 1-24 h with the indicated concentrations of BzFβ or co-treated with the indicated concentrations of BzFβ and 0.5 mg/mL OVA, suspended in complete media. Cells treated with BzFβ only were pulsed with 0.5 nM SIINFEKL pulsed for 1 h. The cells were then co-cultured with equal number of B3Z cells at 37° C. for 19 h.

The test system of series [2] is B16F10 cells (B3Z activation). Nature of the series: B3Z activation by B16F10 (OVA or SIINFEKL). Format: cell-based, murine. On the procedure: B16F10 were plated at a density of 2.5 or 5×10^4 cells/well (100 μL/well in 96 well plates) and cultured overnight in cDMEM. The cells were washed with DPBS and then treated for 1-24 h with the indicated concentrations of BzFβ or co-treated with the indicated concentrations of BzFβ and 1.0 mg/mL OVA, suspended in complete media. Cells treated with BzFβ only were pulsed with 2 nM SIINFEKL pulsed for 1 h. The cells were then co-cultured with equal number of B3Z cells at 37° C. for 19 h.
In this experiment the activity of the dipeptide, GL, was also examined, as it has been previously reported to function as a peptide exchange factor. (Saini, et al., Dipeptides catalyze rapid peptide exchange on MHC class I molecules. Proc Natl Acad Sci USA. 2015 Jan. 6; 112(1):202-7; Saini, et al., Empty peptide-receptive MHC class I molecules for efficient detection of antigen-specific T cells. Sci Immunol. 2019 Jul. 19; 4(37):eaau9039). B16F10 were plated at a density of 2.5 or 5×10^4 cells/well (100 μL/well in 96 well plates) and cultured overnight in cDMEM. The cells were washed with DPBS and then co-treated for 24 h with 10 mM (1.88 mg/mL) of GL and 1.0 mg/mL OVA or were pulsed with 2 nM SIINFEKL for 1 h following treatment with 10 mM GL in complete media. The cells were then co-cultured with an equal number of B3Z cells at 37° C. for 19 h.

Series [3] in a line: In vivo toxicity after gavage, iv or im injection. On the procedure:
Six- to ten-week-old male and female C57BL/6NCrl mice (cat. no. 027, Charles River Laboratories, Wilmington MA) were used for all animal studies. The mice were maintained in accord with the NIH Guide for the Care and Use of Laboratory Animals. Experimental procedures were performed in accord with research protocols approved by the Tampa Bay Research Institute's Institutional Animal Care and Use Committee. Mice were maintained in an INOVIVE individually ventilated cage system with 3 mice per cage containing 100% virgin wood pulp bedding (Harlan Teklad™, Harlan Sprague Dawley Inc., Indianapolis, IA; cat. no. 7099). Water and food (Harland Teklad™; cat. no. 8640) were available ad libitum. The mice were maintained on a cycle of 12 h of light and 12 h of dark in an environment with a temperature of 74-76° […]. and 40-60% humidity. All cages underwent 40 air changes hourly in the negative pressure mode, in accordance with manufacturer's recommendations. Both the intake and exhaust air from the system were filtered through HEPA filters to maintain a clean environment. […]
Mice were gavaged with BzFβ at doses ranging from 25 mg/kg body to 100 mg/kg body weight, injected intravenously (iv) with 50 μg BzFβ or injected intramuscularly with BzFβ at 25 to 40 mg/kg body weight. For two weeks post-treatment, water intake and weight were monitored. […]

Take `O=C(O)/C=C/c1ccc2occc2c1` [BzFβ, (2E)-3-(1-benzofuran-5-yl)prop-2-enoic acid]: in series [1] (co-treatment 24 h, 0.5 mg/mL OVA), the “ability of splenocytes to activate B3Z, OVA” value is given as “enhanced their ability to activate B3Z”. The “ability of splenocytes to activate B3Z, SIINFEKL” value in series [1] (pre-treatment 24 h, then 0.5 nM SIINFEKL 1 h) is reported as “also enhanced their ability to activate the B3Z”. Moreover, the doses with significant enhancement of B3Z activation, OVA in series [1] (splenocytes, 0.5 mg/mL OVA, p<0.0001) was more than 6.25 µg/mL. Further, the “doses with significant enhancement of B3Z activation, SIINFEKL” value in series [1] (splenocytes, 24 h, 0.5 nM SIINFEKL 1 h, p<0.0001) was more than 12.5 µg/mL. In addition, in series [2] (co-treatment with 1 mg/mL OVA, GL at 10 mM), the “B3Z activation by B16F10, OVA” value is “failed to activate the B3Z cells”. Besides, in series [2] (pre-treatment, 1 h pulse 2 nM SIINFEKL, BzFβ 25, 50 μg, GL 10 mM), the “B3Z activation by B16F10, SIINFEKL” value is listed as “significantly activate B3Z”. Further, in series [3] (at the doses tested), the in vivo toxicity entry was “non-toxic”. The “body and organ weights” value in series [3] (gavage 25-100 mg/kg, iv 50 μg, im 25-40 mg/kg, two weeks) was “no differences were measured”.
